Measured values taken from ChEMBL document CHEMBL1151015, “Novel frameworks for trifluoromethyl ketone and phosphonate tsa inhibitors of type II PLA2” (Bioorg Med Chem Lett, 1997).
Each block holds one compound with its values, some of them ahead of it.

Assays:
[1] = biological target: T1, Cytosolic phospholipase A2 (Homo sapiens) (UniProt P47712); assay: Compound was measured for the inhibitory activity against Cytosolic phospholipase A2 (c-PLA2) at 100 uM concentration; design: scale not given: the % may be the effect or the level left
T1 sequence (whole entry): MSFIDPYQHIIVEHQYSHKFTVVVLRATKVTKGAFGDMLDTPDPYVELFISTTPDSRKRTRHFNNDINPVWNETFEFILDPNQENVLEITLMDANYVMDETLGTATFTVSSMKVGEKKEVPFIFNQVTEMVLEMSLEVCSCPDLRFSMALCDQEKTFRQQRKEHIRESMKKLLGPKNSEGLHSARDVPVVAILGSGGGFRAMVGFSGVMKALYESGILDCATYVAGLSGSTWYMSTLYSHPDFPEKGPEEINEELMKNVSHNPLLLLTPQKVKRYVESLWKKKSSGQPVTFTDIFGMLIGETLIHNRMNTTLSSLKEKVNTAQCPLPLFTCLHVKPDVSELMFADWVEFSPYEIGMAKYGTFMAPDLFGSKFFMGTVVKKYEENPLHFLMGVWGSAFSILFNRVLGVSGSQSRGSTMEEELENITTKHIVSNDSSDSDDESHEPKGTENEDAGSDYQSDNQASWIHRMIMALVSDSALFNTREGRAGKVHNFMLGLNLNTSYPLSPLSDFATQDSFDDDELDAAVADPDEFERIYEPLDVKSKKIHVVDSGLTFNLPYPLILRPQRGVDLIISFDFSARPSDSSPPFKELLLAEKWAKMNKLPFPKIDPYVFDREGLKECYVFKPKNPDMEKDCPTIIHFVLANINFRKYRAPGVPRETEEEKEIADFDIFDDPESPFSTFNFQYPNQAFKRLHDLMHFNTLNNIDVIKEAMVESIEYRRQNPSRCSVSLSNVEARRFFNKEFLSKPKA

Homo sapiens [2] = species: Homo sapiens; assay: Compound was measured for the inhibitory activity against LTC4 formation in human monocyte at 30 uM concentration; format: functional; design: scale not given: the % may be the effect or the level left
Homo sapiens [3] = species: Homo sapiens; assay: Compound was measured for the inhibitory activity against LTC4 formation in human monocyte; not determined; not cell permeable; format: functional
[4] = pH dependence of compound; weak; format: ADME
Homo sapiens [5] = species: Homo sapiens; assay: Compound was measured for the inhibitory activity against LTB4 formation in human whole blood at 30 uM concentration; format: functional; design: scale not given: the % may be the effect or the level left
[6] = Dissociation constant of compound.; format: physicochemical
Homo sapiens [7] = species: Homo sapiens; assay: Compound was measured for the inhibitory activity against LTC4 formation in human monocyte; not cell permeable; format: functional
[8] = biological target: T1, Cytosolic phospholipase A2 (Homo sapiens); assay: Compound was measured for the inhibitory activity against Cytosolic phospholipase A 2 (c-PLA2) at 30 uM concentration; design: scale not given: the % may be the effect or the level left

Activity [1]: -36%
Structure (SMILES): O=C(O)c1ccc2cccc(C(=O)C(F)(F)F)c2c1
Activity (Homo sapiens [2]): -76%

pH dependence [4]: weak
Structure (SMILES): CCCCCCCCCCCCCCCCCCOP(=O)(O)c1cccc2ccc(C(=O)O)cc12
Activity (Homo sapiens [3]): not cell permeable

pKa [6]: 7.1
Structure (SMILES): CCCCCCCCCCOP(=O)(O)c1cc(OCc2ccccc2)ccc1/C=C/C(=O)O
Activity (Homo sapiens [5]): -90%
Activity (Homo sapiens [2]): -44%

Activity [8]: -40%
pKa [6]: 7.1
Structure (SMILES): CCCCCCCOc1ccc(C(=O)O)cc1CC(=O)C(F)(F)F
Activity (Homo sapiens [7]): not cell permeable
